We go through 17 compounds from patent US11279735B2, “Cyclic peptide antibiotics” (priority 2017, dated 2022).

This experiment relates to Escherichia coli (E. coli) strain CFT073 ATCC 700928. It counts as cell-based. Particulars: ATCC 700928, 22 h. The protocol:
In vitro antimicrobial activity of each compound was determined by measuring minimal inhibitor concentrations (MICs) using the broth micro-dilution technique as approved by the Clinical and Laboratory Standards Institute (CLSI) (Methods for Dilution Antimicrobial Susceptibility Tests for Bacteria that Grow Aerobically; Approved Standard—Eighth Edition. CLSI document M07-A8. Wayne, Pa.: Clinical and Laboratroy Standards; 2009). Antibacterial activity was measure against Escherichia coli (E. coli) strain CFT073 ATCC 700928, which is a clinically relevant Gram-negative strain. Cells were inoculated onto plates of Mueller Hinton Agar and grown at 37° C. for 16-18 hours. Inocula suspensions were prepared by scraping cells into 1 mL of testing media (Mueller Hinton II cation adjusted Broth supplemented with 0.002% v/v Tween-80) and diluting to a final OD600 nm of 0.01.
Test compounds were prepared in DMSO at a concentration of 100 uM The compounds were tested under several different dilution formats and the data are reported in Tables 6, 7 and 8. In protocol 1, the compound stocks were diluted into testing media at a concentration of 64 μg/ml and serial 2-fold dilutions were made in the same media, in 96-well U bottom microtiter dishes, for a total of 10 compound concentrations. In protocol 2, the compound stocks were diluted into testing media at a concentration of 4 μg/mL and serial 2-fold dilutions were made in the same media, in 96-well U bottom microtiter dishes, for a total of 10 compound concentrations. In protocol 3, compound stocks were diluted into testing media at a concentration of 0.5 μg/mL, with serial 2-fold dilutions conducted as described above. In protocol 4, compound stocks were diluted into testing media at a concentration of 0.13 μg/mL, with serial 2-fold dilutions conducted as described above. Inocula suspensions were added to the 2-fold serial dilutions of test compounds to a final density of OD OD600 nm of 0.0005 and incubated at 35° C. for 22 hours.

Converted amounts (≈) assume the structure as drawn. *1 amine or outer side, *2 acyl side, *3 side chain or, on linkers, in order; H or OH if unused. Where a SMILES comes first, the peptide text is derived from it. [ ]: non-standard residue; d: D form. X23 = CCCCCCCCCC[C@@H](OCCN[*:1])[C@@H](C)C(=O)[*:2]; aIle = CC[C@@H](C)[C@H](N)C(=O)O; aThr = C[C@H](O)[C@H](N)C(=O)O; NMeL = CN[C@@H](CC(C)C)C(=O)O; Dap = NC[C@H](N)C(=O)O

As a reminder, the MIC is the least concentration at which growth counts as inhibited. Read a high MIC as a less susceptible organism. Consider `CCCCCCCCCC[C@H]1OC(=O)CNC(=O)[C@H](CO)NC(=O)[C@H](CO)NC(=O)[C@H]([C@@H](C)CC)NC(=O)[C@H](CCCC)N(C)C(=O)[C@@H]1C` [Example 31, (6S,9S,12S,15S,18R,19R)-15-butyl-19-decyl-6,9-bis(hydroxymethyl)-16,18-dimethyl-12-[(1S)-1-methylpropyl]-1-oxa-4,7,10,13,16-pentazacyclononadecane-2,5,8,11,14,17-hexone], for which the MIC is 13 µM (≈ 9.07 µg/mL).

`CCCCCCCCCC[C@H]1OC(=O)CNC(=O)[C@H]([C@H](C)O)NC(=O)[C@H](CO)NC(=O)[C@H]([C@@H](C)CC)NC(=O)[C@H](CCC)N(C)C(=O)[C@@H]1C` [Example 32, (6S,9S,12S,15S,18R,19R)-19-decyl-6-[(1S)-1-hydroxyethyl]-9-(hydroxymethyl)-16,18-dimethyl-12-[(1S)-1-methylpropyl]-15-propyl-1-oxa-4,7,10,13,16-pentazacyclononadecane-2,5,8,11,14,17-hexone] yielded an MIC of 9.4 µM (≈ 6.56 µg/mL).

As to `CCCCCCCCCC[C@H]1OC(=O)[C@H](C)NC(=O)[C@H]([C@H](C)O)NC(=O)[C@H](CO)NC(=O)[C@H]([C@@H](C)CC)NC(=O)[C@H](CC(C)C)N(C)C(=O)[C@@H]1C` [Example 33, (3S,6S,9S,12S,15S,18R,19R)-19-decyl-6-[(1S)-1-hydroxyethyl]-9-(hydroxymethyl)-15-isobutyl-3,16,18-trimethyl-12-[(1S)-1-methylpropyl]-1-oxa-4,7,10,13,16-pentazacyclononadecane-2,5,8,11,14,17-hexone], the MIC turned out to be 13 µM (≈ 9.44 µg/mL).

For the compound `CCCCCC[C@H]1OC(=O)CNC(=O)[C@H]([C@H](C)O)NC(=O)[C@H](CN)NC(=O)[C@H]([C@H](C)CC)NC(=O)[C@H](CC(C)C)N(C)C(=O)[C@@H]1C` [Example 34, (6S,9S,12S,15S,18R,19R)-9-(aminomethyl)-19-hexyl-6-[(1S)-1-hydroxyethyl]-15-isobutyl-16,18-dimethyl-12-[(1R)-1-methylpropyl]-1-oxa-4,7,10,13,16-pentazacyclononadecane-2,5,8,11,14,17-hexone], the MIC stood at 9.4 µM (≈ 6.16 µg/mL).

`CCCCCCCCCCCC[C@H]1OC(=O)CNC(=O)[C@H]([C@H](C)O)NC(=O)[C@H](CO)NC(=O)[C@H]([C@@H](C)CC)NC(=O)[C@H](CC(C)C)N(C)C(=O)[C@@H]1C` [Example 35, (6S,9S,12S,15S,18R,19R)-19-dodecyl-6-[(1S)-1-hydroxyethyl]-9-(hydroxymethyl)-15-isobutyl-16,18-dimethyl-12-[(1S)-1-methylpropyl]-1-oxa-4,7,10,13,16-pentazacyclononadecane-2,5,8,11,14,17-hexone] had an MIC of 6.3 µM (≈ 4.66 µg/mL).

`CCCCCCCCCC[C@H]1OC(=O)CNC(=O)[C@H](CO)NC(=O)[C@H](CO)NC(=O)[C@H]([C@@H](C)CC)NC(=O)[C@H](CCC)N(C)C(=O)[C@@H]1C` [Example 36, (6S,9S,12S,15S,18R,19R)-19-decyl-6,9-bis(hydroxymethyl)-16,18-dimethyl-12-[(1S)-1-methylpropyl]-15-propyl-1-oxa-4,7,10,13,16-pentazacyclononadecane-2,5,8,11,14,17-hexone] yielded an MIC of 25 µM (≈ 17.1 µg/mL).

Turning to `CCCCCCCCCC[C@H]1OC(=O)CNC(=O)[C@H](CNC(N)=O)NC(=O)[C@H](CO)NC(=O)[C@H]([C@@H](C)CC)NC(=O)[C@H](CC(C)C)N(C)C(=O)[C@@H]1C` [Example 37, [(6S,9S,12S,15S,18R,19R)-19-decyl-9-(hydroxymethyl)-15-isobutyl-16,18-dimethyl-12-[(1S)-1-methylpropyl]-2,5,8,11,14,17-hexaoxo-1-oxa-4,7,10,13,16-pentazacyclononadec-6-yl]methylurea], the minimum inhibitory concentration (MIC) was 25 µM (≈ 18.5 µg/mL).

In turn, `CCCCCCCCCC[C@H]1OC(=O)CNC(=O)[C@H](C2CCNCC2)NC(=O)[C@H](CO)NC(=O)[C@H]([C@@H](C)CC)NC(=O)[C@H](CC(C)C)N(C)C(=O)[C@@H]1C` [Example 38, (6S,9S,12S,15S,18R,19R)-19-decyl-9-(hydroxymethyl)-15-isobutyl-16,18-dimethyl-12-[(1S)-1-methylpropyl]-6-(4-piperidyl)-1-oxa-4,7,10,13,16-pentazacyclononadecane-2,5,8,11,14,17-hexone] showed an MIC of 50 µM (≈ 37.6 µg/mL).

`CCCCCCCCCC[C@H]1OC(=O)CNC(=O)[C@H](CO)NC(=O)[C@H](CO)NC(=O)[C@H](C(C)C)NC(=O)[C@H](CC(C)C)N(C)C(=O)[C@@H]1C` [Example 39, (6S,9S,12S,15S,18R,19R)-19-decyl-6,9-bis(hydroxymethyl)-15-isobutyl-12-isopropyl-16,18-dimethyl-1-oxa-4,7,10,13,16-pentazacyclononadecane-2,5,8,11,14,17-hexone] returned an MIC of 25 µM (≈ 17.1 µg/mL).

In turn, `CCCCCCCCCC[C@H]1OC(=O)CNC(=O)[C@H]([C@H](C)O)NC(=O)[C@H](CO)NC(=O)[C@H](CCC)NC(=O)[C@H](CC(C)C)N(C)C(=O)[C@@H]1C` [Example 40, (6S,9S,12S,15S,18R,19R)-19-decyl-6-((S)-1-hydroxyethyl)-9-(hydroxymethyl)-15-isobutyl-16,18-dimethyl-12-propyl-1-oxa-4,7,10,13,16-pentaazacyclononadecane-2,5,8,11,14,17-hexaone] gave an MIC of 50 µM (≈ 34.9 µg/mL).

The compound `CCCCCCCCCC[C@H]1OC(=O)CNC(=O)[C@H](CO)NC(=O)[C@H](CO)NC(=O)[C@H](CC2CCC2)NC(=O)[C@H](CC(C)C)N(C)C(=O)[C@@H]1C` [Example 41, (6S,9S,12S,15S,18R,19R)-12-(cyclobutylmethyl)-19-decyl-6,9-bis(hydroxymethyl)-15-isobutyl-16,18-dimethyl-1-oxa-4,7,10,13,16-pentazacyclononadecane-2,5,8,11,14,17-hexone] yielded an MIC of 25 µM (≈ 17.7 µg/mL).

For the compound `CCCC(CCC)C[C@H]1OC(=O)CNC(=O)[C@H]([C@H](C)O)NC(=O)[C@H](CO)NC(=O)[C@H]([C@H](C)CC)NC(=O)[C@H](CC(C)C)N(C)C(=O)[C@@H]1C` [Example 42, (6S,9S,12S,15S,18R,19R)-6-[(1S)-1-hydroxyethyl]-9-(hydroxymethyl)-15-isobutyl-16,18-dimethyl-12-[(1R)-1-methylpropyl]-19-(2-propylpentyl)-1-oxa-4,7,10,13,16-pentazacyclononadecane-2,5,8,11,14,17-hexone], the MIC came out at 50 µM (≈ 34.2 µg/mL).

As for `CCCCCCCCCC[C@H]1OC(=O)CNC(=O)[C@H](CO)NC(=O)[C@H](CO)NC(=O)[C@H](C(CC)CC)NC(=O)[C@H](CC(C)C)N(C)C(=O)[C@@H]1C` [Example 43, (6S,9S,12S,15S,18R,19R)-19-decyl-12-(1-ethylpropyl)-6,9-bis(hydroxymethyl)-15-isobutyl-16,18-dimethyl-1-oxa-4,7,10,13,16-pentazacyclononadecane-2,5,8,11,14,17-hexone], the minimum inhibitory concentration (MIC) came out at 13 µM (≈ 9.26 µg/mL).

On to `CC[C@H](C)[C@@H]1NC(=O)[C@H](CC(C)C)N(C)C(=O)[C@H](C)[C@@H](CCCCC(C)(C)C)OC(=O)CNC(=O)[C@H]([C@H](C)O)NC(=O)[C@H](CO)NC1=O` [Example 44, (6S,9S,12S,15S,18R,19R)-19-(5,5-dimethylhexyl)-6-[(1S)-1-hydroxyethyl]-9-(hydroxymethyl)-15-isobutyl-16,18-dimethyl-12-[(1S)-1-methylpropyl]-1-oxa-4,7,10,13,16-pentazacyclononadecane-2,5,8,11,14,17-hexone], for which the MIC is 25 µM (≈ 17.1 µg/mL).

In turn, `CCCCCCCCCC[C@H]1OC(=O)CNC(=O)[C@H]([C@H](C)O)NC(=O)[C@H](CN)NC(=O)[C@H](C2CCCC2)NC(=O)[C@H](CC(C)C)N(C)C(=O)[C@@H]1C` [Example 45, (6S,9S,12S,15S,18R,19R)-9-(aminomethyl)-12-cyclopentyl-19-decyl-6-[(1S)-1-hydroxyethyl]-15-isobutyl-16,18-dimethyl-1-oxa-4,7,10,13,16-pentazacyclononadecane-2,5,8,11,14,17-hexone] registered an MIC of 25 µM (≈ 18.1 µg/mL).

`CCCCCCCCCC[C@H]1OC(=O)CNC(=O)[C@H]([C@H](C)O)NC(=O)[C@H](CN)NC(=O)[C@H](CCc2ccccc2)NC(=O)[C@H](CC(C)C)N(C)C(=O)[C@@H]1C` [Example 46, (6S,9S,12S,15S,18R,19R)-9-(aminomethyl)-19-decyl-6-[(1S)-1-hydroxyethyl]-15-isobutyl-16,18-dimethyl-12-(2-phenylethyl)-1-oxa-4,7,10,13,16-pentazacyclononadecane-2,5,8,11,14,17-hexone] returned an MIC of 25 µM (≈ 19 µg/mL).

Take `CCCCCCCCCC[C@H]1OCCNC(=O)[C@H]([C@H](C)O)NC(=O)[C@H](CN)NC(=O)[C@H]([C@H](C)CC)NC(=O)[C@H](CC(C)C)N(C)C(=O)[C@@H]1C` [Example 47, (6S,9S,12S,15S,18R,19R)-9-(aminomethyl)-19-decyl-6-[(1S)-1-hydroxyethyl]-15-isobutyl-16,18-dimethyl-12-[(1R)-1-methylpropyl]-1-oxa-4,7,10,13,16-pentazacyclononadecane-5,8,11,14,17-pentone] (cyclo([Dap][aThr][X23][NMeL][aIle])): the minimum inhibitory concentration (MIC) is 3.1 µM (≈ 2.16 µg/mL).
